Data from ChEMBL document CHEMBL3872220, “Amphiphilic xanthones as a potent chemical entity of anti-mycobacterial agents with membrane-targeting properties” (Eur J Med Chem, 2016).
Calls of active or inactive are those of the source. The calls are words filed in the database; no cut-off is given here.

What was measured:
[1] = system: Mycobacterium tuberculosis variant bovis; assay: Antimycobacterial activity against Mycobacterium bovis BCG ATCC 35734 assessed as ATP leakage by measuring extracellular ATP at 1 MIC measured at 9 hrs post dose by luciferase reporter gene assay; format: functional, Mycobacterium tuberculosis variant bovis BCG
[2] = system: Mycobacterium tuberculosis variant bovis; assay: Antimycobacterial activity against Mycobacterium bovis BCG ATCC 35734 assessed as ATP leakage by measuring intracellular ATP at 0.5 times MIC measured at 24 hrs post dose by luciferase reporter gene assay; format: functional, Mycobacterium tuberculosis variant bovis BCG
[3] = system: Mycobacterium tuberculosis variant bovis; assay: Antimycobacterial activity against Mycobacterium bovis BCG ATCC 35734 assessed as ATP leakage by measuring extracellular ATP at 1 MIC measured at 24 hrs post dose by luciferase reporter gene assay; format: functional, Mycobacterium tuberculosis variant bovis BCG
[4] = system: Mycobacterium tuberculosis variant bovis; assay: Antimycobacterial activity against Mycobacterium bovis BCG ATCC 35734 assessed as ATP leakage by measuring intracellular ATP at 1 MIC measured at 9 hrs post dose by luciferase reporter gene assay; format: functional, Mycobacterium tuberculosis variant bovis BCG
[5] = system: Mycobacterium tuberculosis variant bovis; assay: Antimycobacterial activity against Mycobacterium bovis BCG ATCC 35734 assessed as ATP leakage by measuring extracellular ATP at 4 times MIC measured at 9 hrs post dose by luciferase reporter gene assay; format: functional, Mycobacterium tuberculosis variant bovis BCG
[6] = system: Mycobacterium tuberculosis variant bovis; assay: Antimycobacterial activity against Mycobacterium bovis BCG ATCC 35734 assessed as ATP leakage by measuring intracellular ATP at 4 times MIC measured immediatey after addition of compounds by luciferase reporter gene assay; format: functional, Mycobacterium tuberculosis variant bovis BCG
[7] = system: Mycobacterium tuberculosis variant bovis; assay: Antimycobacterial activity against Mycobacterium bovis BCG ATCC 35734 assessed as ATP leakage by measuring intracellular ATP at 2 times MIC measured immediatey after addition of compounds by luciferase reporter gene assay; format: functional, Mycobacterium tuberculosis variant bovis BCG
[8] = system: Mycobacterium tuberculosis variant bovis; assay: Antimycobacterial activity against Mycobacterium bovis BCG ATCC 35734 assessed as ATP leakage by measuring intracellular ATP at 0.5 times MIC measured immediatey after addition of compounds by luciferase reporter gene assay; format: functional, Mycobacterium tuberculosis variant bovis BCG
[9] = system: Mycobacterium tuberculosis variant bovis; assay: Bactericidal activity against Mycobacterium bovis BCG ATCC 35734 assessed as log reduction in bacterial colonies at 4 times MIC measured after 3 hrs by time-kill assay; format: functional, Mycobacterium tuberculosis variant bovis BCG
[10] = system: Mycobacterium tuberculosis variant bovis; assay: Bactericidal activity against Mycobacterium bovis BCG ATCC 35734 measured after 14 days by time-kill assay; format: functional
[11] = system: Mycobacterium tuberculosis variant bovis; assay: Antimycobacterial activity against Mycobacterium bovis BCG ATCC 35734 assessed as ATP leakage by measuring intracellular ATP at 2 times MIC measured at 6 hrs post dose by luciferase reporter gene assay; format: functional, Mycobacterium tuberculosis variant bovis BCG
[12] = system: Mycobacterium tuberculosis variant bovis; assay: Antimycobacterial activity against Mycobacterium bovis BCG ATCC 35734 assessed as ATP leakage by measuring extracellular ATP at 1 MIC measured at 6 hrs post dose by luciferase reporter gene assay; format: functional, Mycobacterium tuberculosis variant bovis BCG
[13] = system: Mycobacterium tuberculosis variant bovis; assay: Antimycobacterial activity against Mycobacterium bovis BCG ATCC 35734 assessed as ATP leakage by measuring extracellular ATP at 0.5 times MIC measured at 6 hrs post dose by luciferase reporter gene assay; format: functional, Mycobacterium tuberculosis variant bovis BCG
[14] = system: Mycobacterium tuberculosis variant bovis; assay: Antimycobacterial activity against Mycobacterium bovis BCG ATCC 35734 assessed as ATP leakage by measuring intracellular ATP at 0.5 times MIC measured at 3 hrs post dose by luciferase reporter gene assay; format: functional, Mycobacterium tuberculosis variant bovis BCG
[15] = system: Mycobacterium tuberculosis variant bovis; assay: Antimycobacterial activity against Mycobacterium bovis BCG ATCC 35734 assessed as ATP leakage by measuring extracellular ATP at 2 times MIC measured at 3 hrs post dose by luciferase reporter gene assay; format: functional, Mycobacterium tuberculosis variant bovis BCG
[16] = system: Mycobacterium tuberculosis variant bovis; assay: Antimycobacterial activity against Mycobacterium bovis BCG ATCC 35734 assessed as ATP leakage by measuring extracellular ATP at 1 MIC measured at 3 hrs post dose by luciferase reporter gene assay; format: functional, Mycobacterium tuberculosis variant bovis BCG
[17] = system: Mycobacterium tuberculosis variant bovis; assay: Antimycobacterial activity against Mycobacterium bovis BCG ATCC 35734 assessed as ATP leakage by measuring intracellular ATP at 4 times MIC measured at 1 hr post dose by luciferase reporter gene assay; format: functional, Mycobacterium tuberculosis variant bovis BCG
[18] = system: Mycobacterium tuberculosis variant bovis; assay: Antimycobacterial activity against Mycobacterium bovis BCG ATCC 35734 assessed as ATP leakage by measuring intracellular ATP at 0.5 times MIC measured at 1 hr post dose by luciferase reporter gene assay; format: functional, Mycobacterium tuberculosis variant bovis BCG
[19] = system: Mycobacterium tuberculosis variant bovis; assay: Antimycobacterial activity against Mycobacterium bovis BCG ATCC 35734 assessed as ATP leakage by measuring extracellular ATP at 2 times MIC measured at 1 hr post dose by luciferase reporter gene assay; format: functional, Mycobacterium tuberculosis variant bovis BCG
[20] = system: Mycobacterium tuberculosis variant bovis; assay: Induction of membrane integrity impairment in Mycobacterium bovis BCG ATCC 35734 assessed as pH shift at 30 uM after 3 hrs by dye based fluorescence spectroscopic method relative to control; format: functional, Mycobacterium tuberculosis variant bovis BCG
[21] = system: Mycobacterium tuberculosis variant bovis; assay: Antimycobacterial activity against Mycobacterium bovis BCG ATCC 35734 assessed as ATP leakage by measuring intracellular ATP at 1 MIC measured at 24 hrs post dose by luciferase reporter gene assay; format: functional, Mycobacterium tuberculosis variant bovis BCG
[22] = system: Mycobacterium tuberculosis variant bovis; assay: Bactericidal activity against Mycobacterium bovis BCG ATCC 35734 assessed as log reduction in bacterial colonies measured up to 24 hrs by time-kill assay; format: functional
[23] = system: Mycobacterium tuberculosis variant bovis; assay: Induction of membrane disruption in Mycobacterium bovis BCG ATCC 35734 at 60 uM up to 3 hrs by Sytox green uptake assay; format: functional
[24] = system: Mycobacterium tuberculosis variant bovis; assay: Bactericidal activity against Mycobacterium bovis BCG ATCC 35734 assessed as log reduction in bacterial colonies at 4 times MIC measured after 24 hrs by time-kill assay; format: functional, Mycobacterium tuberculosis variant bovis BCG

Structure (SMILES) | Activity [1] [%] | Activity [2] [%] | Activity [3] [%] | Activity [4] [%] | Activity [5] [%] | Activity [6] [%] | Activity [7] [%] | Activity [8] [%] | Activity [11] [%] | Activity [12] [%] | Activity [13] [%] | Activity [14] [%] | Activity [15] [%] | Activity [16] [%] | Activity [17] [%] | Activity [18] [%] | Activity [19] [%] | Activity [20] [%] | Activity [21] [%] | other results
CCCN(CCC)CCCCOc1cc2oc3cc(OCCCCN(CCC)CCC)c(OC)c(CC=C(C)C)c3c(=O)c2c(O)c1CC=C(C)C | 48.5 | 84.4 | 37.5 | 51.5 | 84 | 90.6 | 97.8 | 100 | 36.8 | 30.4 | 28 | 79.9 | 44.2 | 24.2 | 83.2 | 74.9 | 10.1 | 76.6 | 62.5 | Activity [9]: 1.5; Activity [10]: Dose-dependent effect; Activity [22]: Dose-dependent effect
CCN(CC)CCCCOc1cc2oc3cc(OCCCCN(CC)CC)c(OC)c(CC=C(C)C)c3c(=O)c2c(O)c1CC=C(C)C | 85.3 | 65.3 | 86.4 | 14.7 | 94.5 | 89.5 | 96.4 | 100 | 8.1 | 70.7 | 22.9 | 72.6 | 83.6 | 66.1 | 34 | 79.2 | 42.4 | 20 | 13.6 | Activity [23]: Active
COc1c(OCCCCN2CCOCC2)cc2oc3cc(OCCCCN4CCOCC4)c(CC=C(C)C)c(O)c3c(=O)c2c1CC=C(C)C | 13.5 | 95.2 | 4.5 | 86.5 | 58.4 | 85.7 | 91.9 | 100 | 72.6 | 14.4 | 8.6 | 91.4 | 20 | 7.7 | 74.6 | 79.8 | 16.7 | – | 95.5 | Activity [24]: 3.3
